Assay results: PMC5515971, “Utility of spherical human liver microtissues for prediction of clinical drug-induced liver injury” (Archives of Toxicology, 2017)
Read-outs that look alike come from different tables or passages of the source.

What was measured:
[1] = tested on: 3D human liver microtissues (hLiMT); experiment: Cytotoxicity (cellular ATP, CellTiter-Glo 2.0) in 3D human liver microtissues, 14 day repeat-dose treatment; conditions: for IC50: Homo sapiens, 336 h
[2] = tested on: primary human hepatocytes (PHH); experiment: Cytotoxicity (cellular ATP, CellTiter-Glo) in 2D plated primary human hepatocytes, 48 h treatment; type: cell-based; conditions: for IC50: Hepatocyte, 2D primary human hepatocytes (lot IZT), 48 h treatment, total cellular ATP content, read-out: Geomean IC50;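 for all read-outs here: 384-well plates, luminescence read-out, normalized to vehicle wells with 1% DMSO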
[3] = tested on: 3D human liver microtissues (hLiMT); experiment: alpha-GST release into hLiMT supernatant (ELISA); type: cell-based; conditions: 336 h, 14 days, release into medium, read-out: IC50 (α-GST assay)
[4] = cited from earlier work
[5] = tested on: 3D human liver microtissues (hLiMT); experiment: Cytotoxicity (cellular ATP) in 3D human liver microtissues, 5-6 days treatment; type: cell-based; conditions: Homo sapiens; hLiMT, 5/6 days, ATP content; read-out: IC50 SHORT;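 note: Hanging-drop spheroids, seven-point dilution series, re-dosed on day 3, CellTiter-Glo 2.0 luminescence, normalized to 0.5 or 1% DMSO vehicle controls on the same plate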
[6] = Clinical DILI severity categorization and DILI pattern; conditions: P = DILI severity categories 1, 2 and 3; N = categories 4 and 5
[7] = cited from earlier work; for P/N (DILI positive / DILI negative): P = DILI severity categories 1, 2 and 3, N = categories 4 and 5; for DILI category: clinical, from literature and product labels
[8] = ref Chen et al 2016 / Chen et al 2011; cited from earlier work
[9] = tested on: 3D human liver microtissues (hLiMT)
[10] = Hepatocyte, read-out: Geomean IC50 [µM]
[11] = human Cmax total, used for IC50/Cmax
[12] = human total plasma Cmax, ref literature values
[13] = Table 1, ref Garside et al. (2014)
[14] = clinical DILI severity category, 1-5
[15] = table S-5, ref Garside et al. 2014
[16] = table S-4, ref Garside et al. 2014

Structure (SMILES)	IC50 ([1]; read-out: IC50 (ATP-assay))	IC50 ([1]; read-out: IC50 LONG)	IC50 [1, 10]	IC50 [2]	IC50 [3]	Cmax [4, 11]	Cmax [4, 12]	IC50 [5]	P/N (DILI positive / DILI negative) [6]	P/N (DILI positive / DILI negative) [7]	DILI severity category [7, 13]	DILI severity category [7, 14]	DILI category ([7]; ref Garside et al. 2014)	FDA DILI Classification DILI severity score [8]	LTKB DILI classification [8]	DILI severity category [7, 15]	further results
CC(=O)Nc1ccc(O)cc1 [Acetaminophen]	732 µM	573 µM	~573 µM	4600 µM	3260 µM	165 µM	165 µM	911 µM									
O=C(O)Cc1ccccc1Nc1c(Cl)cccc1Cl [Diclofenac]	45.6 µM	61.4 µM	~61.4 µM	> 500 µM	210 µM	10.1 µM	10.1 µM	100 µM									
CCN(CC)C(=O)/C(C#N)=C/c1cc(O)c(O)c([N+](=O)[O-])c1 [Entacapone]			152 µM	100 µM		3.28 µM	3.28 µM		N	N	4: Enzyme elevations in clinic (N = 16)	4. Enzyme Elevations in Clinic	4. Enzyme Elevations in Clinic	0	less DILI concern		
Cc1c(-c2ccccc2)oc2c(C(=O)OCCN3CCCCC3)cccc2c1=O [Flavoxate]			> 10 µM	> 10 µM		1.79 µM	1.79 µM		N	N	5: No DILI (N = 25)	5. No DILI	5. No DILI	0	no DILI concern		
CCOC(=O)c1ncn2c1CN(C)C(=O)c1cc(F)ccc1-2 [Flumazenil]			> 250 µM	> 250 µM		1.12 µM	1.12 µM		N	N	5: No DILI (N = 25)	5. No DILI	5. No DILI	0	no DILI concern		
C[N+](C)(C)C[C@H](O)CC(=O)[O-] [Levocarnitine]			> 10000 µM	> 10000 µM		85.7 µM	85.7 µM		N	N	5: No DILI (N = 25)	5. No DILI	5. No DILI		no DILI concern	5. No DILI	
CNC1(C)C2CCC(C2)C1(C)C (centres unmarked) [Mecamylamine]			> 25 µM	> 50 µM			0.14 µM		N	N	5: No DILI (N = 25)	5. No DILI	5. No DILI	0	no DILI concern		
Cc1ccc(Cl)c(Nc2ccccc2C(=O)O)c1Cl [Meclofenamate]			~23.1 µM	292 µM		81.1 µM	81.1 µM		N	N	4: Enzyme elevations in clinic (N = 16)	4. Enzyme Elevations in Clinic	4. Enzyme Elevations in Clinic	3	Ambiguous DILI concern		classification at 10× MOS threshold ([1]; hLiMT 14 days): false positive; classification at 10× MOS threshold ([2]; PHH 48 h): false positive
CC(C)(C)NCC(O)COc1cccc2c1CC(O)C(O)C2 (centres unmarked) [Nadolol]			> 100 µM	> 100 µM		0.81 µM	0.81 µM		N	N	4: Enzyme elevations in clinic (N = 16)	4. Enzyme Elevations in Clinic	4. Enzyme Elevations in Clinic	3	Ambiguous DILI concern	4. Enzyme Elevations in Clinic	
CCc1nn(CCCN2CCN(c3cccc(Cl)c3)CC2)c(=O)n1CCOc1ccccc1 [Nefazodone]	~44.9 µM	29.4 µM	~29.4 µM	36.2 µM	48.5 µM	4.3 µM	4.26 µM	25.3 µM			1: Severe clinical DILI (N = 23)	1. Severe Clinical DILI	1. Severe Clinical DILI	8	most DILI concern	1. Severe Clinical DILI	classification at 50× MOS threshold ([1]; hLiMT 14 days): hepatotoxic; DILI severity category [7, 16]: 1; classification at 50× MOS threshold ([2]; PHH 48 h): hepatotoxic
CC(C)(C)NC[C@H](O)COc1ccccc1C1CCCC1 [Penbutolol]			~39 µM	15.7 µM		1.03 µM	1.03 µM		N	N	4: Enzyme elevations in clinic (N = 16)	4. Enzyme Elevations in Clinic	4. Enzyme Elevations in Clinic		no DILI concern		classification at 100 μM IC50 threshold ([1]; hLiMT 14 days): false positives; classification at 100 μM IC50 threshold ([2]; PHH 48 h): false positives
C1CCC(C(CC2CCCCN2)C2CCCCC2)CC1 (centres unmarked) [Perhexiline]	2.01 µM	2.5 µM	~2.6 µM	11.2 µM	6.26 µM			4.2 µM			1: Severe clinical DILI (N = 23)	1. Severe Clinical DILI	1. Severe Clinical DILI	8	most DILI concern	1. Severe Clinical DILI	DILI severity category [7, 16]: 1
CC(COc1ccccc1)N(CCCl)Cc1ccccc1 (centres unmarked) [Phenoxybenzamine]			> 25 µM	> 50 µM			0.2 µM										Geomean IC50/cmax [9]: > 126.9
CC(C)[N+](C)(CCOC(=O)C1c2ccccc2Oc2ccccc21)C(C)C [Propantheline]			> 50 µM	> 50 µM		0.44 µM	0.44 µM		N	N	5: No DILI (N = 25)	5. No DILI	5. No DILI	0	no DILI concern		
[H]/N=C(/N)N[C@H]1[C@H](O)[C@@H](O)[C@H](O[C@@H]2O[C@@H](C)[C@](O)(C=O)[C@H]2O[C@@H]2O[C@@H](CO)[C@H](O)[C@@H](O)[C@@H]2NC)[C@@H](N/C(N)=N\[H])[C@@H]1O [Streptomycin]			> 100 µM	> 100 µM		64.5 µM	64.5 µM	100 µM	N	N	5: No DILI (N = 25)	5. No DILI	5. No DILI		no DILI concern		P/N ([7]; binary DILI classification, table S-4): N; DILI severity category [7, 16]: 5
Nc1c2c(nc3ccccc13)CCCC2 [Tacrine]			~69.6 µM	106 µM													Geomean IC50/cmax [9]: 696.2
Cc1ccc(C(=O)c2cc(O)c(O)c([N+](=O)[O-])c2)cc1 [Tolcapone]	19.3 µM	15.5 µM	~19 µM	158 µM	62.4 µM	47.6 µM	47.6 µM	30.1 µM			1: Severe clinical DILI (N = 23)	1. Severe Clinical DILI	1. Severe Clinical DILI	8	most DILI concern	1. Severe Clinical DILI	DILI severity category [7, 16]: 1
Cc1c(C)c2c(c(C)c1O)CCC(C)(COc1ccc(CC3SC(=O)NC3=O)cc1)O2 (centres unmarked) [Troglitazone]	10.8 µM	14.6 µM	~14.6 µM	> 100 µM	14 µM	6.4 µM		25.6 µM			1: Severe clinical DILI (N = 23)	1. Severe Clinical DILI	1. Severe Clinical DILI	8	most DILI concern	1. Severe Clinical DILI	DILI severity category [7, 16]: 1
